Laboratory results from patent US20230130243A1, “Method of Treating Urothelial Carcinoma and Other Genitourinary Malignancies Using N-(4-(6,7-dimethoxyquinolin-4-yloxy)phenyl)-N'-(4-fluorophenyl)cyclopropane-1,1-dicarboxamide” (The United States of America, as Represented by the …, priority 2016, published 2023).

Experiments:
[1] = system: metastatic urothelial carcinoma (mUC); conditions: mUC patients progressed despite prior platinum-containing chemotherapy; cited from earlier work
[2] = system: Treg (CD4+CD25hiFoxp3+) in CD4+ T-cells; test: Treg population in urothelial cancer patients treated with cabozantinib (FIGS. 1, 2); assay type: in vivo, human
Source text: Directly killing the tregs, and 2. Influencing treg polarization. See Apolo, A B, et al., J. Clin. Oncol. 2014; 32s:abstr 4501.
With reference to FIG. 2, it is believed that cabozantinib downregulates regulatory T cell population by acting on T cell polarization via inhibition of transcription factor Foxp3. The biologic rationale for combining cabozantinib and immune checkpoint blockade in mUC can be extrapolated from the results shown in FIGS. 2A and 2B. In FIG. 2A, patients with lower percent Treg (CD4+CD25hiFoxp3+) in CD4+ T-cells (<3.89%=median value) at baseline had better response compared with those who had higher percent Treg at baseline.

[3] = system: peripheral blood mononuclear cells (PBMC); test: PBMC incubated with Cabozantinib, master regulator transcription factors of CD4+ T-cell polarization (FIGS. 1A and 1B); assay type: cell-based; conditions: PBMCs, 3-4 days, 10% FBS-RPMI, Cabozantinib 10 uM vs DMSO control; three donors
Method: With reference to FIGS. 1A and 1B, peripheral blood mononuclear cells (PBMC) were obtained by centrifugation from buffy coat. PBMCs were incubated for 3-4 days in a 24 well plate with 10% FBS-RPMI medium with DMSO (control) or Cabozantinib (10 uM). Representative data obtained from three different donors were shown. […] Naïve CD4+ T-cells can polarize toward four CD4+ lineages.

[4] = system: metastatic urothelial carcinoma and other genitourinary malignancies; test: Phase I study of CaboNivo and CaboNivoIpi in patients; assay type: in vivo, human
Source text: This example provides results of a Phase I study of Cabozantinib (Cabo)+Nivolumab (Nivo) and (CaboNivo) Cabo+Nivolumab+Ipilimumab (Ipi) (CaboNivoIpi) in patients with metastatic urothelial carcinoma and other genitourinary malignancies.
The study provides results of a Phase I study of Cabozantinib+Nivolumab and Cabozantinib+Nivolumab+Ipilimumab in patients with metastatic urothelial carcinoma and other genitourinary malignancies. The purpose of the study was to determine the dose limiting toxicity (DLT) and recommended Phase II dose (RP2D) of the combination of CaboNivo and separately the combination of CaboNivolpi. In the study, DLT was defined as any event requiring a patient to discontinue study treatment. The DLT evaluation period was 4 weeks (Part 1) and 6 weeks (Part 2).
Secondary endpoints for the study included overall response rate (ORR) by RECIST v1.1; duration of response; progression free survival (PFS); and overall survival (OS). Exploratory Endpoints included the identification of immune subset biomarkers associated with PD-L1 and MET expression as well as correlation with efficacy.
Key eligibility criteria for the study included: • Histologically confirmed diagnostic of genitourinary (GU) malignancy; • Patients with metastatic GU malignancy who has disease progression on at least one standard therapy or there must be no standard treatment that prolongs survival; • A Karnofsky performance status of greater than or equal to 70 percent; and • One evaluable site of disease or bone disease by NaF PET/CT.

[5] = system: relapsed/refractory metastatic urothelial carcinoma (mUC); conditions: pretreated patients with relapsed/refractory mUC; cited from earlier work

## Nivolumab: IgG4 anti-PD-1 monoclonal antibody sold under the name OPDIVO
[1]
  clinical activity: clinical activity

## COc1cc2nccc(Oc3ccc(NC(=O)C4(C(=O)Nc5ccc(F)cc5)CC4)cc3)c2cc1OC [Cabozantinib, N-(4-(6,7-dimethoxyquinolin-4-yloxy)phenyl)-N′-(4-fluorophenyl)cyclopropane-1,1-dicarboxamide]
[2]; after treatment with Cabozantinib, FIG. 2B
  percent Treg among CD4+ T-cells: decreased significantly
[2]; urothelial cancer patients, FIG. 1, see Apolo et al. 2014
  Treg population: decrease the Treg population
[3]
  suppression of master regulator transcription factors of CD4+ T-cell polarization: suppresses only Foxp3
[4]; 2 of the 18 patients with dose reduction
  patients with 3 dose reductions: 11%
[4]; 6 of the 18 patients with dose reduction
  patients with 2 dose reductions: 33%
[4]; 10 of the 18 patients with dose reduction
  patients with 1 dose reduction: 56%
[4]; 18 of 42 patients
  patients with ≥1 dose reduction of cabozantinib: 43%
[4]; number of dose reductions per patient, 18 patients
  median dose reduction: 1 (range 1-3)
[5]
  clinical activity: clinical activity
